For 89 molecules, melting point results are on record in a melting point compilation (Tetko et al.; mined from patent text by program, amines drawn as free bases though some values may be those of a salt).

Each structure is given as a SMILES string. Bounds are passed on as bounds.

Broadly, the melting point is the temperature of the solid-liquid transition.

The molecule `O=c1ccc(-c2ccc(OCCCCl)cc2)n[nH]1` gave a melting point of 191 to 193 °C.
`NNc1nc(Cl)nc2ccccc12` registered a melting point greater than 280 °C.
Turning to `CC(=NO)c1csc(S(N)(=O)=O)c1`, the melting point was 185 to 188 °C.
The figure for `c1cnc(NC2CCN(C3CCCC3)CC2)nc1` is 118 °C; for `CC1(C)Oc2ccc(OC(F)(F)F)cc2[C@@H](NC(=O)c2ccc(Cl)cc2[N+](=O)[O-])[C@@H]1O` it is 64 to 66 °C.
With `Cc1ccc2c(c1)c(C)c1n2C(=O)C(Cc2nc[nH]c2C)CC1` (centres undefined), the melting point lay within 255 to 258 °C.
`CC(C)Oc1cc(OC(C)C)c(C(=O)O)c(C(F)(F)F)n1` gave a melting point of 147 to 150 °C.
For the molecule `COC(=O)c1sc2nc(C)c(Cl)c(=O)n2c1C`, the melting point was in the range of 140 to 141 °C.
As for `O=C(Oc1ccc([N+](=O)[O-])cc1)c1ccc2[nH]cc(CCN3C(=O)c4ccccc4C3=O)c2c1`, the melting point fell in the range of 248 to 251 °C.
`CN1Cc2c(C(=O)OC3CCCC3)ncn2-c2cccc(Cl)c2C1=O` registered a melting point of 162 to 163 °C.
`CC(C)C[C@@H](C=O)NC(=O)[C@H](Cc1c[nH]cn1)NC(=O)[C@H](Cc1ccc2ccccc2c1)NC(=O)OCc1ccccc1` gave a melting point of 110 to 112 °C.
`O=C(O)c1c(OCc2cccc(OCc3ccc4ccccc4n3)c2)cccc1C(F)(F)F` yielded a melting point of 184 to 185 °C.
For `CCOC(=O)c1cn(-c2ccc(F)cc2F)c2nc(OC)c(F)cc2c1=O` the value was 190 to 192 °C; for `CCN(C=O)Cc1ccc(NCCN(CC)CC)c2c(=O)c3ccccc3sc12`, 75 to 77 °C; for `COc1cc(CCl)ccc1OCc1nc(-c2cccc(C#N)c2)oc1C`, 150 to 151 °C.
As to `Cn1cc(C2=C(c3cn(C4CN(C(c5ccccc5)c5ccccc5)C4)c4ccccc34)C(=O)NC2=O)c2ccccc21`, the melting point was in the range of 102 to 105 °C.
As to `Cc1cccc(NC(=O)C2=C(O)c3ccccc3S(=O)(=O)N2C)c(=O)c1`, the melting point lay in the range of 276 to 280 °C.
The figure for `O=[N+]([O-])c1cccc2nn(-c3ccccc3)nc12` is 155 to 156 °C; for `Brc1nsc2nc3ccccc3n12` it is 189 to 190 °C; for `Cc1c2n(c3ccccc13)C(=O)C(=Cc1ncn(S(=O)(=O)N(C)C)c1C)CC2` it is 200 to 205 °C.
`C=CCOC(=O)NC(C)(C)c1ccc(-c2nc(Nc3ccc(CCN4CCOCC4)cc3)ncc2Cl)cc1` came in with a melting point of 65 to 69 °C.
`O=C(O)c1cccc2c1CC(N(CCCc1c[nH]c3c(F)cc(F)cc13)C1CCC1)CO2` (centres undefined) came in with a melting point of 130 to 131 °C.
With `CC(C)(C)c1ccc(Sc2ccc(Br)cc2)cc1`, the melting point was 39 to 46 °C.
`c1ccc(-c2nc(-c3ccc(OCCCn4ccnc4)cc3)no2)cc1` yielded a melting point of 132 to 133 °C.
For `O=[PH](O)Cc1cccc(P(c2ccccc2)c2ccccc2)c1` the value was 173 °C.
As for `CC1CN(C(=O)N(c2ccccc2)c2ccccc2)CCN1C(=O)N(c1ccccc1)c1ccccc1` (centres undefined), the melting point fell in the range of 200 to 202 °C.
For `O=C(OCc1ccccc1)N1CCC2(CC1)CN(c1ccc(Cl)c(Cl)c1)C(=O)O2`, the melting point came out at 105 °C.
Molecule `O=c1ccc2c(Br)nccc2[nH]1` had a melting point of 272 to 274 °C.
As to `CCC(C)(CC)C1=NN=C(NC(=O)c2c(OC)cccc2OC)SC1`, the melting point fell in the range of 134 to 140 °C.
As for `O=c1cc(-c2ccncc2)nc2n1CCC(C(F)(F)F)N2` (centres undefined), the melting point lay within 302 to 304 °C.
In turn, `CCOC(=O)c1cc(-c2ccc(OCc3cccnc3)cc2O[C@H](CCC(=O)O)c2ccccc2C)n[nH]1` registered a melting point of 108 to 110 °C.
Molecule `CC(C)[C@H](NC(=O)OCc1ccccc1)C(=O)N[C@@H](C(C)C)[C@@H](O)c1c(-c2ccccc2)c1=O` yielded a melting point of 63 to 71 °C.
`Nc1nc(NS(=O)(=O)c2ccccc2[N+](=O)[O-])n[nH]1` displayed a melting point of 255 to 256 °C.
On to `O=S1(=O)c2ccccc2Cc2ccc(-c3nnn[nH]3)cc21`, for which the melting point is 233 °C.
As for `CS(=O)(=O)c1cc(C(=O)N=C(N)N)ccc1C1C=CCC1` (centres undefined), the melting point fell in the range of 188 to 190 °C.
`CCCCC1(CCCC)CCc2c(OCc3ccc4ccccc4n3)ccc(C)c2C1O` (centres undefined) showed a melting point of 149 to 151 °C.
Molecule `Cc1ccc(-c2cncc(CN3CC=C(c4ccccc4)CC3)c2)cc1` gave a melting point of 133 to 135 °C.
For `O=C(CC(=O)C(F)(F)F)c1ccc(Cl)cc1`, the melting point lay within 66 to 67 °C.
Take `CC(C)c1nn(-c2ccccn2)cc1CCCOc1ccccc1CC(=O)O`: the melting point is 140 to 142 °C.
The molecule `CSc1nnc2c3ccccc3c(-c3ccccc3)nn12` had a melting point of 220 to 221 °C.
As for `NS(=O)(=O)c1cccc(-c2noc(-c3cnc4c(C(F)(F)F)cc(-c5ccc(C(F)(F)F)cc5)cn34)n2)c1`, the melting point worked out at 297 °C.
For the molecule `CCOC(=O)c1scc2c1CN(C)C(=O)c1cncn1-2`, the melting point came to 208 °C.
`NC(=O)c1cc(Cl)c(Cl)cc1C(=O)NCCN1CCC(c2noc3cc(F)ccc23)CC1` gave a melting point of 132 to 134 °C.
As to `CCN(CC)C(=O)CCc1cc2ccccc2c(-c2ccccc2)n1`, the melting point is 70 °C.
Turning to `Cc1ccc(C(=O)CCc2ccc(N)cc2)cc1`, the melting point lay in the range of 59 to 61 °C.
The molecule `O=C(NC1CC1)c1[nH]c2ccc(Cl)cc2c1S(=O)(=O)c1ccccc1` registered a melting point of 242 to 243 °C.
The molecule `CCOC(=O)C1=C(CS(=O)c2ccccc2)Nc2ccnc(OC(C)C)c2C1c1ccccc1C(F)(F)F` (centres undefined) registered a melting point of 206 to 208 °C.
`COC(=O)c1c(CN2CCC(S(C)(=O)=O)CC2)c(=O)c2ccc(F)cc2n1-c1ccccc1` came in with a melting point of 190 to 191 °C.
As for `COC(=O)c1cc(-c2ccc(Cl)cc2)n(-c2ccc(S(N)(=O)=O)cc2)n1`, the melting point amounted to 186 °C.
For `CC[Si](CC)(c1ccc(N(c2ccccc2)c2ccccc2)cc1)c1ccc(N(c2ccccc2)c2ccccc2)cc1` the value was 154 to 155 °C.
In the case of `CCC(=O)N1Cc2cnn(C)c2-c2cc(Cl)ccc21`, the melting point was 127 to 128 °C.
For `CCOC(=O)COc1cccc2c1OCCC2=O` the value was 56 to 66 °C; for `Cc1cc(C)c(C)c(COc2cccc(-c3c(-c4ccccc4)coc3C(=O)NNC(=O)c3ccc(O)c(C#N)c3)c2)c1C`, 207 to 209 °C; for `Cc1cnc2c(c1C)CCCC2C(N)=S` (centres undefined), 163 to 165 °C.
`CC(=O)CN1CCc2c(c(=O)oc3cc(C)c(N)cc23)C1` yielded a melting point of 196 to 198 °C.
In the case of `Cn1cc(CO)c(=O)c2cccc(F)c21`, the melting point was in the range of 206 to 210 °C.
The molecule `Cc1oc(-c2ccccc2)nc1COc1cccc(CON2C(=O)c3ccccc3C2=O)c1` had a melting point of 146 to 147 °C.
For `Cc1cc(Oc2ccccc2)ccc1C(=O)CBr`, the melting point was 60 to 61 °C.
With `CCC(CC)n1c(=O)ccc2cnc(S(C)=O)nc21` (centres undefined), the melting point fell in the range of 111 to 114 °C.
With `CC(=O)C1(COC(N)=O)CC2C=CC1C2` (centres undefined), the melting point was in the range of 118 to 119 °C.
Turning to `Cn1c(=O)n(Cc2ccc(Cl)cc2Cl)c(=O)c2ccc(C(=O)O)cc21`, the melting point fell in the range of 308 to 310 °C.
Molecule `CCOC(=O)Cn1cc(F)cnc1=O` displayed a melting point of 121 °C.
For `CCCc1ccc2nc(Cl)c(S(N)(=O)=O)n2n1` the value was 174 to 175 °C.
The molecule `Cn1ccnc1CCc1cc2c(cc1O)CCO2` yielded a melting point of 190 to 191 °C.
The figure for `O=C1Nc2ccccc2N(C(=O)CCCl)c2ccccc21` is 241 to 242 °C; for `CCCc1cc(O)nc(SCC(N)=O)n1` it is 200 to 203 °C; for `Clc1ccc(Nc2nc3ccccc3o2)c(Cl)c1` it is 98 to 99 °C.
`O=C1c2nc3ccccn3c2C(=O)c2cccc(F)c21` returned a melting point greater than 260 °C.
The molecule `Nc1ccc(Oc2ccccc2-c2ccccc2Oc2ccc(N)cc2)cc1` registered a melting point of 157 to 158 °C.
`CCNC(=O)NCCNc1nc(-c2ccc(F)cc2C)c2ccc(=O)n(-c3c(F)cccc3F)c2n1` gave a melting point of 130 to 133 °C.
The molecule `N#Cc1cccc(NC(=O)NC2N=C(c3ccccc3F)c3ccccc3N(CC(=O)N3CC4CCC(CC4)C3)C2=O)c1` (racemic) had a melting point of 188 to 195 °C.
Molecule `N#Cc1[nH]c(=O)n(-c2ccc(Cl)cc2)c1C#N` registered a melting point of 242 to 245 °C.
`CC(C)CCNC(=O)c1ccccc1-c1ccccc1CNC(=O)c1ccccc1` displayed a melting point of 147 °C.
As to `CCNc1ccc(C(C)=O)cc1S(N)(=O)=O`, the melting point is 201 to 204 °C.
Regarding `CC(=CC1=NCCC1)N(C)C1CCCCC1`, the melting point was in the range of 152 to 153 °C.
In the case of `CCOC(=O)c1cnn2c1nc(N1CCN(C)CC1)c1cnc3c(cnn3CC)c12`, the melting point lay in the range of 111 to 113 °C.
Consider `CC(C)CC(=O)Nc1cccc(-c2ccnc3c(-c4cccc5cccnc45)cnn23)c1`, for which the melting point was 96 to 99 °C.
`OC(Cn1cncn1)(c1ccc(F)cc1F)C(F)(F)SC1CC1` (centres undefined): the melting point was 99 to 102 °C.
Molecule `CC(=O)OCC(C)(C)C(OC(C)=O)C(Oc1ccc(Cl)cc1)n1cncn1` (centres undefined) registered a melting point of 84 to 87 °C.
`CC1=NCN(c2csc(Br)c2)O1` displayed a melting point of 72 to 73 °C.
On to `Cc1cccc(C)c1N(CCCc1cccnc1)C(=O)CC(C)N1C(=O)c2ccccc2C1=O` (centres undefined), for which the melting point was in the range of 169 to 171 °C.
With `CC(C)(C)NC(=O)Nc1nc2nc(N)ncc2cc1-c1ccncc1`, the melting point was greater than 350 °C.
In turn, `Cn1c(C(F)(F)F)nn(-c2cc(F)c(C#N)cc2Cl)c1=O` returned a melting point of 105 °C.
Regarding `Brc1ccc(C2CC(n3ccnc3)c3ccccc3N2)cc1` (centres undefined), the melting point was 142 to 144 °C.
`COc1cc(C)c(C=CC(C)=CC=C(C)C(=O)O)c(C)c1C` had a melting point of 188 to 190 °C.
The molecule `COc1cccc2c1CCNC2=S` came in with a melting point of 44 to 46 °C.
The figure for `Cc1c[nH]c2ccc(Nc3ncnc4cc(-c5ccccc5)sc34)cc12` is 221 to 223 °C.
The figure for `COc1nc(=O)c(Cc2ccc(C)nc2)c[nH]1` is 145 to 147 °C.
Turning to `OCCCc1ccc(OCc2coc(/C=C/c3ccccc3)n2)cc1`, the melting point was 95 to 96 °C.
